The text below walks through data of patent publication US8236790B2, “Benzothiadiazepine compounds, a process for their preparation and pharmaceutical compositions containing them” (Les Laboratories Servier, priority 2009, dated 2012).

Data set [1] has as its system AMPA receptor. Kind of data set: Membrane depolarisation brought about by AMPA in primary cultures of rat neurons (fluorescence). Format: cell-based. The note with it: read-out: EC2X (the concentration of compound which doubles the membrane potential brought about by AMPA); cultured rat embryonic neurons, AMPA 3 to 100 μM. The protocol:
Study of the Effect of Compounds on the Membrane Depolarisation Brought about by AMPA in Primary Cultures of Rat Neurons
The test comprises the in vitro measurement, by means of fluorescence, of the membrane depolarisation brought about in cultured rat embryonic neurons by the joint action of AMPA and the compound under test, compared to the action of AMPA alone. The brain cells are placed in culture and kept in a cell culture incubator for 18 days. After incubation, the culture medium is withdrawn and replaced with fluorescent probe loading medium for measurement of the membrane potential (20 μl; membrane potential kit from Molecular Devices) and left at ambient temperature for 1 hour. The base fluorescence of the wells is read (FDSS apparatus from Hamamatsu) and the cells are then injected with AMPA (20 μl; concentration range: from 3 to 100 μM) and the action of the AMPA is measured kinetically. The test compound is then introduced into the wells (20 μl; in a concentration range crossed with that of AMPA) and the action of the compound is measured kinetically. At the end of each of the two periods of kinetic measurement, the result for each well is the average reading over the final 15 seconds of the period. The curves are plotted of the effect of AMPA at the various concentrations of compound. […]

Data set [2] relates to NMDA-type glutamatergic receptors from rat cortex. Description: Current induced by NMDA in oocytes of Xenopus laevis injected with poly(A+) mRNA from rat cortex (two-electrode voltage clamp). Format: cell-based. The note with it: NMDA 3×10^−4M with 3×10^−5M glycine, −60 mV, magnesium-free OR2; read-out: IC50 (concentration of product which inhibits the current induced by NMDA by 50%). The protocol: Effect of Compounds on the Current Induced by NMDA in Oocytes of Xenopus laevis Injected with Poly(A^+) mRNA from Rat Cortex
Electrophysiological recordings are carried out on oocytes of Xenopus laevis injected with poly(A^+) mRNA from rat cortex and expressing, inter alia, NMDA-type glutamatergic receptors from rat cortex, in a plexiglass recording chamber continuously perfused with OR2 solution not containing magnesium (which blocks the opening of the NMDA receptor channel) and at ambient temperature. The inward current induced by an application of NMDA is recorded at a resting potential of −60 mV, using a standard two-electrode voltage clamp technique. The NMDA (3×10^−4M) is applied with the perfusion solution in the presence of 3×10^−5M glycine for 30 seconds every 5 minutes, at a constant perfusion rate of 3 ml/min. The amplitude of the current induced by NMDA is measured at the peak of the current. The tested compounds are applied at increasing doses to the same oocyte in the perfusion solution 45 seconds before, 30 seconds during and 30 seconds after the application of 3×10^−4M NMDA in the presence of 3×10^−5M glycine every 5 minutes. The amplitude of the current induced by NMDA in the presence of compound is normalised and expressed as a percentage of that induced in the same oocyte in the absence of product, which corresponds to 100% response. […]
Background: In two-electrode clamp one electrode senses voltage and the other passes current.

The subject of data set [3] is CD1 mouse. Description: Object recognition in the CD1 mouse. Type of data set: in vivo. Particulars: doses of 1 and 3 mg/kg PO, 60 minutes before each of the 3 phases. The source says: Object Recognition in the CD1 Mouse
The object recognition test (Behay. Brain Res., 1988, 31, 47-59) is based on the spontaneous exploratory activity of the animal and has the characteristics of episodic memory in humans. This memory test is sensitive to ageing (Eur. J. Pharmacol., 1997, 325, 173-180) and to cholinergic dysfunctions (Pharm. Biochem. Behay., 1996, 53(2), 277-283) and is based on the differences in the exploration of 2 objects of fairly similar shape—one familiar, the other new. The test procedure, which has been adapted for the CD1 mouse, comprises 3 phases which take place in the same test enclosure. During the first phase, which lasts 40 minutes, the mice are habituated to the environment. During the second phase, which takes place the next day, an object is placed in the enclosure and the mouse is free to explore it. Once the duration of that exploration has reached 20 seconds, the mouse is taken out of the enclosure. In the course of the third phase (5 minutes), 24 hours later, the same object is presented (acquiring the status of a “familiar” object), as well as a new object. The duration of exploration, expressed in seconds, is timed for each of the two objects.

In turn, `O=S1(=O)NCCNc2ccc(Oc3ccc(OCc4ccccc4)cc3)cc21` [Example 8, 8-[4-(benzyloxy)phenoxy]-2,3,4,5-tetrahydro-1,2,5-benzothiadiazepine 1,1-dioxide] gave a melting point of 134 °C.
With `O=S1(=O)NCCNc2ccc(Oc3ccccc3)cc21` [Example 1, 8-phenoxy-2,3,4,5-tetrahydro-1,2,5-benzothiadiazepine 1,1-dioxide], the EC2X in data set [1] is 25 µM. For the same molecule, the IC50 in data set [2] was found to be 9 µM. For the same molecule, in data set [3], the “exploration of the new object compared to the familiar object” value is on record as “significantly greater exploration of the new object”.

Broadly, the melting point is the temperature, or range, at which the solid turns liquid.
